Measurements taken from ChEMBL document CHEMBL1201862, “PubChem BioAssay data set” (2004).
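All cell lines were grown in 96-well plates and treated with compound for 48 hours. Here, GI50 denotes the concentration required for 50% inhibition of growth.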 Calls of active or inactive are those of the source. No stated cut-off is given here; in the data, active = GI50 up to about 1.1 µM and inactive = higher.

Legend:
Assay in all cases: NCI tumour cell line growth inhibition, 48 h
DLD-1 = system: DLD-1
EKVX = system: EKVX
HL-60 = system: HL-60
NCI-H460 = system: NCI-H460
OVCAR-3 = system: OVCAR-3
A549 = system: A549
HT-29 = system: HT-29
CCRF-CEM = system: CCRF-CEM
U-251 = system: U-251
SF-268 = system: SF-268
SK-MEL-28 = system: SK-MEL-28
SK-MEL-5 = system: SK-MEL-5
HCT-15 = system: HCT-15
SF-539 = system: SF-539
DU-145 = system: DU-145
A498 = system: A498
PC-3 = system: PC-3
Hs-578T = system: Hs-578T
MDA-MB-435 = system: MDA-MB-435
NCI/ADR-RES = system: NCI/ADR-RES

SMILES: NNC(=O)C(=O)N/N=C1\CCCC1C(=O)CCC(=O)Nc1cccc(Cl)c1 (stereo not drawn)
- GI50 (DLD-1): > 100 µM (inactive)
- GI50 (EKVX): > 100 µM (inactive)
- GI50 (HL-60): > 100 µM (inactive)
- GI50 (NCI-H460): > 100 µM (inactive)
- GI50 (OVCAR-3): > 100 µM (inactive)
- GI50 (A549): > 100 µM (inactive)
- GI50 (HT-29): > 100 µM (inactive)
- GI50 (CCRF-CEM): > 100 µM (inactive)
- GI50 (U-251): > 100 µM (inactive)
- GI50 (SF-268): > 100 µM (inactive)
- GI50 (SK-MEL-28): > 100 µM (inactive)
- GI50 (SK-MEL-5): > 100 µM (inactive)

SMILES: O=C(c1ccccc1)C(c1ccccc1)C1(O)C(=O)Nc2c(Cl)cc(Cl)cc21 (stereo not drawn)
- GI50 (DLD-1): 17.7 µM (inactive)
- GI50 (EKVX): 14.2 µM (inactive)
- GI50 (HL-60): 12.6 µM (inactive)
- GI50 (NCI-H460): 28.2 µM (inactive)
- GI50 (OVCAR-3): 26 µM (inactive)
- GI50 (A549): 18.9 µM (inactive)
- GI50 (HT-29): 23.9 µM (inactive)
- GI50 (CCRF-CEM): 14 µM (inactive)
- GI50 (U-251): 26.2 µM (inactive)
- GI50 (SF-268): 21.2 µM (inactive)
- GI50 (SK-MEL-28): 18.9 µM (inactive)
- GI50 (HCT-15): 39.4 µM
- GI50 (SK-MEL-5): 15.8 µM (inactive)

SMILES: O=C(O)/C=C\C(=O)Nc1ccc(S(=O)(=O)c2ccc(NC(=O)/C=C\C(=O)O)cc2)cc1
- GI50 (DLD-1): > 100 µM (inactive)
- GI50 (EKVX): > 100 µM (inactive)
- GI50 (SF-539): > 100 µM (inactive)
- GI50 (HL-60): > 100 µM (inactive)
- GI50 (OVCAR-3): > 100 µM (inactive)
- GI50 (A549): > 100 µM (inactive)
- GI50 (HT-29): > 100 µM (inactive)
- GI50 (CCRF-CEM): > 100 µM (inactive)
- GI50 (U-251): > 100 µM (inactive)
- GI50 (SF-268): > 100 µM (inactive)
- GI50 (SK-MEL-28): > 100 µM (inactive)
- GI50 (HCT-15): > 100 µM
- GI50 (SK-MEL-5): > 100 µM (inactive)

SMILES: CN(CCO)c1nc(=O)c2c(n1C1OC(CO)C(O)C(O)C1O)CCCC2 (stereo not drawn)
- GI50 (DLD-1): > 100 µM (inactive)
- GI50 (EKVX): > 100 µM (inactive)
- GI50 (SF-539): > 100 µM (inactive)
- GI50 (HL-60): > 100 µM (inactive)
- GI50 (NCI-H460): > 100 µM (inactive)
- GI50 (OVCAR-3): > 100 µM (inactive)
- GI50 (A549): > 100 µM (inactive)
- GI50 (HT-29): > 100 µM (inactive)
- GI50 (CCRF-CEM): > 100 µM (inactive)
- GI50 (U-251): > 100 µM (inactive)
- GI50 (SF-268): > 100 µM (inactive)
- GI50 (SK-MEL-28): > 100 µM (inactive)
- GI50 (HCT-15): > 100 µM
- GI50 (SK-MEL-5): > 100 µM (inactive)

SMILES: O=Cc1c[nH]c2c(=O)[nH]cnc12
- GI50 (DLD-1): > 100 µM (inactive)
- GI50 (EKVX): > 100 µM (inactive)
- GI50 (HL-60): > 100 µM (inactive)
- GI50 (OVCAR-3): > 100 µM (inactive)
- GI50 (A549): > 100 µM (inactive)
- GI50 (HT-29): > 100 µM (inactive)
- GI50 (CCRF-CEM): > 100 µM (inactive)
- GI50 (SF-268): > 100 µM (inactive)
- GI50 (SK-MEL-28): > 100 µM (inactive)
- GI50 (HCT-15): > 100 µM
- GI50 (SK-MEL-5): > 100 µM (inactive)

SMILES: O=C(N/C=C/C=C/Sc1ccccc1)OCc1ccccc1
- GI50 (DLD-1): 14.1 µM (inactive)
- GI50 (EKVX): 24.8 µM (inactive)
- GI50 (SF-539): 16.5 µM (inactive)
- GI50 (HL-60): 8.83 µM (inactive)
- GI50 (NCI-H460): 21.7 µM (inactive)
- GI50 (OVCAR-3): 17.3 µM (inactive)
- GI50 (A549): 20.4 µM (inactive)
- GI50 (HT-29): 17.5 µM (inactive)
- GI50 (CCRF-CEM): 52.1 µM (inactive)
- GI50 (U-251): 19.3 µM (inactive)
- GI50 (SF-268): 17.5 µM (inactive)
- GI50 (SK-MEL-28): 18.7 µM (inactive)
- GI50 (HCT-15): 18.1 µM
- GI50 (SK-MEL-5): 17.7 µM (inactive)

SMILES: COCN1C(=O)C2CC(/C=C/C(N)=O)=CN2C(=O)c2ccccc21 (stereo not drawn)
- GI50 (DLD-1): > 100 µM (inactive)
- GI50 (EKVX): > 100 µM (inactive)
- GI50 (SF-539): > 100 µM (inactive)
- GI50 (HL-60): > 100 µM (inactive)
- GI50 (NCI-H460): > 100 µM (inactive)
- GI50 (OVCAR-3): > 100 µM (inactive)
- GI50 (A549): > 100 µM (inactive)
- GI50 (HT-29): > 100 µM (inactive)
- GI50 (CCRF-CEM): > 100 µM (inactive)
- GI50 (U-251): > 100 µM (inactive)
- GI50 (SF-268): > 100 µM (inactive)
- GI50 (SK-MEL-28): > 100 µM (inactive)
- GI50 (SK-MEL-5): > 100 µM (inactive)

SMILES: C#CCn1c(=O)c2cccnc2n(CC#C)c1=O
- GI50 (DLD-1): > 100 µM (inactive)
- GI50 (HL-60): > 100 µM (inactive)
- GI50 (NCI-H460): > 100 µM (inactive)
- GI50 (A549): > 100 µM (inactive)
- GI50 (HT-29): > 100 µM (inactive)
- GI50 (CCRF-CEM): > 100 µM (inactive)
- GI50 (U-251): > 100 µM (inactive)
- GI50 (SF-268): > 100 µM (inactive)
- GI50 (SK-MEL-28): > 100 µM (inactive)
- GI50 (HCT-15): > 100 µM
- GI50 (SK-MEL-5): > 100 µM (inactive)

SMILES: N#CC(NNC(=O)c1ccccc1O)c1cccc(O)c1 (stereo not drawn)
- GI50 (DLD-1): 4.54 µM (inactive)
- GI50 (SF-539): 2.93 µM (inactive)
- GI50 (HL-60): 4.74 µM (inactive)
- GI50 (NCI-H460): 3.47 µM (inactive)
- GI50 (OVCAR-3): 13 µM (inactive)
- GI50 (A549): 2.21 µM (inactive)
- GI50 (HT-29): 37.6 µM (inactive)
- GI50 (CCRF-CEM): 4.66 µM (inactive)
- GI50 (U-251): 2.99 µM (inactive)
- GI50 (SF-268): 0.986 µM (active)
- GI50 (SK-MEL-28): > 100 µM (inactive)
- GI50 (HCT-15): 5.31 µM
- GI50 (SK-MEL-5): 18.2 µM (inactive)

SMILES: O=C(Oc1ccccc1)c1cc2cc(CCl)ccc2oc1=O
- GI50 (DU-145): 27.7 µM (inactive)
- GI50 (EKVX): 17.6 µM (inactive)
- GI50 (SF-539): 30.6 µM (inactive)
- GI50 (A498): 19.1 µM (inactive)
- GI50 (HL-60): 18.2 µM (inactive)
- GI50 (PC-3): 14.2 µM (inactive)
- GI50 (NCI-H460): 20.3 µM (inactive)
- GI50 (OVCAR-3): 29.1 µM (inactive)
- GI50 (A549): 25.8 µM (inactive)
- GI50 (HT-29): 24.4 µM (inactive)
- GI50 (CCRF-CEM): 24.3 µM (inactive)
- GI50 (U-251): 44.6 µM (inactive)
- GI50 (Hs-578T): 16.9 µM (inactive)
- GI50 (SF-268): 23.2 µM (inactive)
- GI50 (SK-MEL-28): 13.3 µM (inactive)
- GI50 (HCT-15): 31.5 µM
- GI50 (MDA-MB-435): 19.4 µM (inactive)
- GI50 (SK-MEL-5): 12.8 µM (inactive)
- GI50 (NCI/ADR-RES): 30 µM (inactive)
